Test results: patent publication US5616615A, “Enaminone esters” (priority 1995, dated 1997)
Read-outs that look alike come from different tables or passages of the source.

Columns and labels:
[1] = tested on: Maximal electroshock seizures; assay: MES maximal electroshock seizure test, mice ip; assay type: in vivo
Protocol: Three tests were performed:
1. MES--Electroshock Seizure Test
(§1) Maximal electroshock seizures are elicited with a 60-cycle alternating current of 50 mA intensity (5-7 times that necessary to elicit minimal electroshock seizures) delivered via corneal electrodes for 0.2 seconds. A drop of 0.9% saline is instilled in the eye prior to application of the electrodes in order to […].

[2] = tested on: Maximal electroshock seizures; assay: Phase VI oral MES test, rats; assay type: in vivo; settings: oral, 50 mg/kg; for responders at 50 mg/kg: Rattus norvegicus, read-out: MES, animals protected/tested (converted)
From the text: as §1
(§2) This oral screen is designated as phase VI.

in vivo [3] = settings: rat, po, 50 mg/kg
From the text: as §2

in vivo [4] = settings: for Tox, animals exhibiting toxicity/tested: 300 mg/kg
Protocol: (§3) The first phase of the ADD Program involved performing tests on male Carworth Farms #1 mice. […] Three tests were performed:
In the second phase of the ADD program protocol, estimates of anticonvulsant activity and neurotoxicity are quantified. The median effective dose (ED50) in the MES, sc Met, and rotorod test is determined. In the case of a compound with apparent activity in only one anticonvulsant test, testing is carried out in the other up to, and in some cases beyond, doses which produce neurological deficit. Compounds which fail to produce minimal neurological deficit are tested whenever possible to doses ten times their lowest anticonvulsant ED50. […] The rotorod ED50 is determined at the time of the peak neurologic deficit.

seizures = assay: Anticonvulsant evaluation (ASP phase I / overall); assay type: in vivo, mice; settings: Mus musculus, ip, read-out: ASP Classification
Protocol: as §3, §1
The animal is observed for 30 minutes.

[5] = tested on: Subcutaneous Pentylenetetrazol seizure; assay: sc Met subcutaneous pentylenetetrazol (Metrazol) seizure test, mice; assay type: in vivo; settings: for responders at 100 mg/kg / responders at 300 mg/kg: Mus musculus, sc
[6] = Mus musculus, ip, 0.5 h, 100 mg/kg, 30 min, read-out: MES, animals protected/tested (converted)
[7] = Mus musculus, ip, 0.5 h, 300 mg/kg, 30 min, read-out: MES, animals protected/tested
[8] = Mus musculus, ip, 4 h, 100 mg/kg, 4 h, read-out: MES, animals protected/tested (converted)
[9] = Mus musculus, ip, 4 h, 300 mg/kg, 4 h, read-out: MES, animals protected/tested
[10] = 0.5 h, 30 min, read-out: scMet, animals protected/tested (converted)
[11] = 0.5 h, 300 mg/kg, 30 min, read-out: scMet, animals protected/tested (converted)
[12] = 4 h, 4 h, read-out: scMet, animals protected/tested (converted)
[13] = 4 h, 300 mg/kg, 4 h, read-out: scMet, animals protected/tested (converted)

| Structure (SMILES) | responders at 100 mg/kg [1, 6] | responders at 300 mg/kg [1, 7] | responders at 100 mg/kg [1, 8] | responders at 300 mg/kg [1, 9] | responders at 50 mg/kg ([2]; 0.5 h, 0.50 h) | responders at 50 mg/kg ([2]; 0.25 h) | responders at 50 mg/kg ([2]; 1.00 h) | responders at 50 mg/kg ([2]; 2.00 h) | Tox, animals toxic/tested (in vivo [3]) | minimal effective dose (seizures; Phase I) | responders at 100 mg/kg [5, 10] | responders at 300 mg/kg [5, 11] | responders at 100 mg/kg [5, 12] | responders at 300 mg/kg [5, 13] | responders at 50 mg/kg ([2]; 4.00 h) | Tox (rotorod), animals toxic/tested (in vivo [4]; mouse, in vivo, 100 mg/kg) | further results |
| --- | --- | --- | --- | --- | --- | --- | --- | --- | --- | --- | --- | --- | --- | --- | --- | --- | --- |
| CCOC(=O)C1C(=O)C=C(Nc2ccc(C(F)(F)F)cc2)CC1C (stereo not shown) [Compound 131] | 100% | 100% | 0% | 100% | 100% | 100% | 100% | 100% | 0/4 | < 100 mg/kg | 0% | 0% | 0% | 0% |  |  | responders at 10 mg/kg ([1]; Mus musculus, ip, 0.25 h, mice ip, 0.25 h, read-out: MES, animals protected/tested (converted)): 100%; responders at 10 mg/kg ([1]; Mus musculus, ip, 0.5 h, mice ip, 0.50 h, read-out: MES, animals protected/tested (converted)): 75%; responders at 10 mg/kg ([1]; Mus musculus, ip, 1 h, mice ip, 1.00 h, read-out: MES, animals protected/tested (converted)): 100%; responders at 10 mg/kg ([1]; Mus musculus, ip, 2 h, mice ip, 2.00 h, read-out: MES, animals protected/tested (converted)): 50%; responders at 10 mg/kg ([1]; Mus musculus, ip, 4 h, mice ip, 4.00 h, read-out: MES, animals protected/tested (converted)): 50%; anti-MES protecting ability ([1]; Phase I): showed anti-MES protecting ability; Tox, animals toxic/tested (in vivo [4]; mouse, in vivo, ip, 100 mg/kg): 0/8 |
| CC1(C)CC(=O)C=C(NCCc2ccccc2)C1 [Compound 145] |  |  |  |  |  |  |  |  |  |  |  |  |  |  |  |  | responders at 100 mg/kg ([1]; Mus musculus, ip, 0.25 h, read-out: MES, animals protected/tested): 0%; responders at 300 mg/kg ([1]; Mus musculus, ip, 0.5 h, read-out: MES, animals protected/tested): 100%; responders at 100 mg/kg ([1]; Mus musculus, ip, 1 h, read-out: MES, animals protected/tested): 0%; responders at 300 mg/kg ([1]; Mus musculus, ip, 4 h, read-out: MES, animals protected/tested): 0%; Tox, animals exhibiting toxicity/tested (in vivo [4]; 30 min): 4/4; Tox, animals exhibiting toxicity/tested (in vivo [4]; 4 h): 0/2; Tox (rotorod), animals toxic/tested (in vivo [4]; Phase II, 100 mg/kg, 0.25 h): 0/2; Tox (rotorod), animals toxic/tested (in vivo [4]; Phase II, 100 mg/kg, 1.00 h): 0/2; minimal effective dose (seizures): > 100 mg/kg; responders at 300 mg/kg ([5]; 0.5 h, read-out: scMet, animals protected/tested): 0%; responders at 300 mg/kg ([5]; 4 h, read-out: scMet, animals protected/tested): 0% |
| CCOC(=O)C1C(=O)C=C(Nc2ccc([N+](=O)[O-])cc2)CC1C (stereo not shown) [Compound 127] | 100% | 100% | 0% | 0% | 50% | 25% | 100% | 50% | 0/4 | < 100 mg/kg | 0% | 100% | 0% | 0% | 25% |  | responders at 3 mg/kg ([1]; Mus musculus, ip, 0.5 h, Phase II, 3 mg/kg, 0.50 h, read-out: MES, animals protected/tested): 0%; responders at 10 mg/kg ([1]; Mus musculus, ip, 0.5 h, Phase II, 0.50 h, read-out: MES, animals protected/tested (converted)): 0%; Tox (rotorod), animals toxic/tested (in vivo [4]; mouse, in vivo, 3 mg/kg): 0/4; Tox (rotorod), animals toxic/tested (in vivo [4]; mouse, in vivo, 10 mg/kg): 0/4; responders at 300 mg/kg ([5]; 0.5 h, 300 mg/kg, 30 min, second trial, read-out: scMet, animals protected/tested (converted)): 50% |
| CCOC(=O)C1C(=O)C=C(Nc2ccc(CC)cc2)CC1C (stereo not shown) [Compound 126] |  | 100% |  | 0% | 75% | 50% | 75% | 75% | 0/4 | > 100 mg/kg |  | 0% |  | 0% | 50% | 0/2 | responders at 100 mg/kg ([1]; Mus musculus, ip, 0.25 h, Phase II, 100 mg/kg, 0.25 h, read-out: MES, animals protected/tested (converted)): 100%; responders at 100 mg/kg ([1]; Mus musculus, ip, 1 h, Phase II, 100 mg/kg, 1.00 h, read-out: MES, animals protected/tested (converted)): 0% |
| O=C1C=C(NCCc2ccccc2)CCC1 [Compound 154] |  |  |  |  |  |  |  |  | 0/4 |  |  |  |  |  |  | 0/2 | MES, animals protected/tested ([1]; 300 mg/kg, 30 min): 1/1; MES, animals protected/tested ([1]; 300 mg/kg, 4 h): 0/1; MES, animals protected/tested ([1]; Phase II, 100 mg/kg, 0.25 h): 2/2; MES, animals protected/tested ([1]; Phase II, 100 mg/kg, 1.00 h): 0/2; MES, animals protected/tested ([2]; 0.25 h): 0/4; MES, animals protected/tested ([2]; 0.50 h): 0/4; MES, animals protected/tested ([2]; 1.00 h): 0/4; MES, animals protected/tested ([2]; 2.00 h): 0/4; MES, animals protected/tested ([2]; 4.00 h): 0/4; scMet, animals protected/tested ([5]; 300 mg/kg, 30 min): 0/1; scMet, animals protected/tested ([5]; 300 mg/kg, 4 h): 0/1 |
